Active and inactive are the calls of the source.
Columns and labels:
[1] = molecular target: Lysine-specific demethylase 4A (Homo sapiens, UniProt O75164); assay: inhibition of JMJD2A H3K9me3 demethylation – biochemical, DELFIA europium, cherry-picked samples, selectivity assay for GASC-1 inhibitor project, dose response (AID 488840)
[2] = molecular target: Lysine-specific demethylase 4C (Homo sapiens, UniProt Q9H3R0); assay: inhibition of JMJD2C H3K9me3 demethylation – biochemical, DELFIA europium, cherry-picked samples, dose response (AID 488835); format: functional
[3] = molecular target: T1, Mannose-6-phosphate isomerase (Homo sapiens, UniProt P34949); assay: MPI inhibition at elevated mannose 6-phosphate – biochemical, fluorescence intensity, high mannose 6-phosphate, primary screen (AID 1220)
T1 sequence (P34949 whole entry): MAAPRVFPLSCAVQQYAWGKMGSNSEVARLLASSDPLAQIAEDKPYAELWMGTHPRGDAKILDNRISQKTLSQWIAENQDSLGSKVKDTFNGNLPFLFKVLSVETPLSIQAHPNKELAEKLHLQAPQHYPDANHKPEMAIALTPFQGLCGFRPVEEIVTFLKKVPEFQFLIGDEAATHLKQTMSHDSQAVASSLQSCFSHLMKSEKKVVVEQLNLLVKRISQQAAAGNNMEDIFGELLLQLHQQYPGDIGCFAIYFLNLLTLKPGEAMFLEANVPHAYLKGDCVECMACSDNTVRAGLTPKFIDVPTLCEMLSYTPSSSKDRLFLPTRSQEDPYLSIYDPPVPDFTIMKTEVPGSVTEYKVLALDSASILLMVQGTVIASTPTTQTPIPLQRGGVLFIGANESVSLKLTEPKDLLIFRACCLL

[4] = molecular target: T2, Kappa-type opioid receptor (Homo sapiens, UniProt P41145); assay: kappa opioid receptor blockers, image-based, SAR follow-up (AID 2348); format: functional
[5] = molecular target: T3, Mu-type opioid receptor (Homo sapiens, UniProt P35372); assay: mu opioid receptor blockers – image-based, SAR follow-up (AID 2420); format: functional;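 note: compounds added before stimulation of receptor with agonist DAMGO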
[6] = molecular target: T2, Kappa-type opioid receptor; assay: kappa opioid receptor activation potency – imaging, image-based, SAR follow-up (AID 2359); format: functional
[7] = molecular target: T4, Delta-type opioid receptor (Homo sapiens, UniProt P41143); assay: delta opioid receptor blockers – image-based, SAR follow-up (AID 2357); format: functional
[8] = molecular target: T2, Kappa-type opioid receptor; assay: kappa opioid receptor blockers, cell-based, luminescence, beta-arrestin, SAR follow-up (AID 2285); format: functional
[9] = molecular target: T3, Mu-type opioid receptor; assay: mu opioid receptor activators, image-based, SAR follow-up (AID 2352); format: functional
[10] = molecular target: T4, Delta-type opioid receptor; assay: DOR agonists, SAR follow-up, image-based (AID 2370); format: functional
[11] = molecular target: T5, Tyrosine-protein phosphatase non-receptor type 7 (Homo sapiens, UniProt P35236); assay: SAR analysis of chemical inhibitors of HePTP using a Fluorescent assay - Set 2. [Related pubchem assays (depositor defined):AID1059, AID1077, AID1661, AID2085, AID521]; format: functional
T5 sequence (P35236 whole entry): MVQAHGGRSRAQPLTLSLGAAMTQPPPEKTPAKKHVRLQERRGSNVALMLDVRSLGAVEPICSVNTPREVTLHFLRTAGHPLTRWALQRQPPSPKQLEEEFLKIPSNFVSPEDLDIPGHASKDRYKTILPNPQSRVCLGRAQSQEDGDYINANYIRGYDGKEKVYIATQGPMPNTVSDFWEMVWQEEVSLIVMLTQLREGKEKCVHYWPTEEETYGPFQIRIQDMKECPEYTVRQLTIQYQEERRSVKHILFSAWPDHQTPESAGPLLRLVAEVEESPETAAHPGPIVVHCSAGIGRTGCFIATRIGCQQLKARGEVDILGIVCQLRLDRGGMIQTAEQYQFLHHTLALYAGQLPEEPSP

[12] = molecular target: T6, Cannabinoid receptor 2 (Homo sapiens, UniProt P34972); assay: SAR analysis of antagonists of the Cannabinoid Receptor 2 using an Image-Based Assay - Set 2. [Related pubchem assays (depositor defined):AID1961, AID1965]; format: functional
[13] = molecular target: Cannabinoid receptor 1 (Homo sapiens, UniProt P21554); assay: SAR analysis of antagonists of the Cannabinoid Receptor 1 using an Image-Based Assay. [Related pubchem assays (depositor defined):AID1961, AID1965]; format: functional
[14] = molecular target: T7, G-protein coupled receptor 55 (Homo sapiens, UniProt Q9Y2T6); assay: selective activators of receptor GPR55 – imaging, U2OS cells, beta-arrestin-GFP redistribution, primary screen (AID 1961); format: functional
[15] = molecular target: Dual specificity protein phosphatase 3 (Homo sapiens, UniProt P51452); assay: SAR VHR1 Fluorescent Assay for In Vitro dose response studies Set 2. [Related pubchem assays (depositor defined):AID1654, AID1661, AID1878]; format: functional
[16] = molecular target: T6, Cannabinoid receptor 2; assay: SAR analysis of agonists of the Cannabinoid Receptor 2 using an Image-Based Assay - Set 2. [Related pubchem assays (depositor defined):AID1961, AID1965]; format: functional
[17] = molecular target: T8, Polyadenylate-binding protein 1 (Homo sapiens, UniProt P11940); assay: MLLE binding blockers, Cy5 peptide tracer – biochemical, fluorescence polarization, Cy5-PAM2 peptide, secondary, miRNA deadenylation inhibitor project, dose response (AID 602260); format: functional; settings: read-out: IC50_Mean
[18] = molecular target: T8, Polyadenylate-binding protein 1; assay: MLLE domain peptide-binding blockers, IC50 – biochemical, fluorescence polarization, FITC-PAM2 peptide, dose response (AID 602259); format: functional; settings: read-out: IC50_Mean
[19] = molecular target: T7, G-protein coupled receptor 55; assay: SAR analysis of selective Agonists of GPR55 using an Image-Based Assay. [Related pubchem assays (depositor defined):AID1961, AID1965]; format: functional

T2 sequence (P41145 whole entry): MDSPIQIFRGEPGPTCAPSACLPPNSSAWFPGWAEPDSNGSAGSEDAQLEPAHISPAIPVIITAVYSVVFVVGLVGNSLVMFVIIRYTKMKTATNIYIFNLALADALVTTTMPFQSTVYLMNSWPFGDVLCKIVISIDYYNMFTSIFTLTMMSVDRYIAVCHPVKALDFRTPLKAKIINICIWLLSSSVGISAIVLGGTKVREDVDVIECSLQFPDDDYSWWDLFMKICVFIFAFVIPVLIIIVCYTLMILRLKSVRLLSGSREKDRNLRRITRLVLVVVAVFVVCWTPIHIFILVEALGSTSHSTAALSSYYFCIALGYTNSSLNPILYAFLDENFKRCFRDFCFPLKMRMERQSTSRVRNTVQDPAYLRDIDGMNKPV
T7 sequence (Q9Y2T6 whole entry): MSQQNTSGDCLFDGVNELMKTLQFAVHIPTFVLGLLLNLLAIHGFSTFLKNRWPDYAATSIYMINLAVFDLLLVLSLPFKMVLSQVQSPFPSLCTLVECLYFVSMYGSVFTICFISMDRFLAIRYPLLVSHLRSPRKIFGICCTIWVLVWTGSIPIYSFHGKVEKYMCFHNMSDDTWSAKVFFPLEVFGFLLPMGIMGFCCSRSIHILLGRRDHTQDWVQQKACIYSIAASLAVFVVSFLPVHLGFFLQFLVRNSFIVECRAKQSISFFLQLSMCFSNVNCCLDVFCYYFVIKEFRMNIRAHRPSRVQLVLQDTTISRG
T4 sequence (P41143 whole entry): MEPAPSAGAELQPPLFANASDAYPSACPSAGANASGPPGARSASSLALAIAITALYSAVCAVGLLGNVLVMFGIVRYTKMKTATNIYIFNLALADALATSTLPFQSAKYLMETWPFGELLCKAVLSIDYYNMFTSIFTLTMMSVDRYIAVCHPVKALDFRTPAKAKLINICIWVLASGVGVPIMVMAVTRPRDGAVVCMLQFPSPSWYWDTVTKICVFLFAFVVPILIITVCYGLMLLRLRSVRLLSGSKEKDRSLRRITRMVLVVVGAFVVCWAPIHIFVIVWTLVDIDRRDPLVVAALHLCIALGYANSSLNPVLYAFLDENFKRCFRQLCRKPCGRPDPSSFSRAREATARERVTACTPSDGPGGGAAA
T3 sequence (P35372 whole entry): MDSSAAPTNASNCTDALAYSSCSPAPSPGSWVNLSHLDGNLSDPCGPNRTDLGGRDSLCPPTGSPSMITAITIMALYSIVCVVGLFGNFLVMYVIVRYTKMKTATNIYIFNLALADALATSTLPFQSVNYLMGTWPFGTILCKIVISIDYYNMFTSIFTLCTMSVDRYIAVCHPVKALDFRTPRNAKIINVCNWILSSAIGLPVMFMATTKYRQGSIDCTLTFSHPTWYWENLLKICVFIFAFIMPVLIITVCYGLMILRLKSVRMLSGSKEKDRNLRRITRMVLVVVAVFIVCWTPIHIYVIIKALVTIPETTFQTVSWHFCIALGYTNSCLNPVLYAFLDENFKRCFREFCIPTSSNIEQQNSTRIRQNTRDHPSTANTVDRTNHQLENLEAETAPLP
T6 sequence (P34972 whole entry): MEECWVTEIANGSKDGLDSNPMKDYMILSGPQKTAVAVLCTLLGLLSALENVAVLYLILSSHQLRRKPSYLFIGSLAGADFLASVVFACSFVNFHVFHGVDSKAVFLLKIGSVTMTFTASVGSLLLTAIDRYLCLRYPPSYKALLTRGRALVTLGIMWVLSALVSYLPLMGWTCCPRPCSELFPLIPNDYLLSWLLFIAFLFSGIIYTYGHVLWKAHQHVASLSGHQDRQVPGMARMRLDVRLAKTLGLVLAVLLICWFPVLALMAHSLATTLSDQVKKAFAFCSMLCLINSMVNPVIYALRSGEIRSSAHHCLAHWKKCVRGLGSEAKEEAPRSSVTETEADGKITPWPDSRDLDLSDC
T8 sequence (P11940 whole entry, the tested form may be a part): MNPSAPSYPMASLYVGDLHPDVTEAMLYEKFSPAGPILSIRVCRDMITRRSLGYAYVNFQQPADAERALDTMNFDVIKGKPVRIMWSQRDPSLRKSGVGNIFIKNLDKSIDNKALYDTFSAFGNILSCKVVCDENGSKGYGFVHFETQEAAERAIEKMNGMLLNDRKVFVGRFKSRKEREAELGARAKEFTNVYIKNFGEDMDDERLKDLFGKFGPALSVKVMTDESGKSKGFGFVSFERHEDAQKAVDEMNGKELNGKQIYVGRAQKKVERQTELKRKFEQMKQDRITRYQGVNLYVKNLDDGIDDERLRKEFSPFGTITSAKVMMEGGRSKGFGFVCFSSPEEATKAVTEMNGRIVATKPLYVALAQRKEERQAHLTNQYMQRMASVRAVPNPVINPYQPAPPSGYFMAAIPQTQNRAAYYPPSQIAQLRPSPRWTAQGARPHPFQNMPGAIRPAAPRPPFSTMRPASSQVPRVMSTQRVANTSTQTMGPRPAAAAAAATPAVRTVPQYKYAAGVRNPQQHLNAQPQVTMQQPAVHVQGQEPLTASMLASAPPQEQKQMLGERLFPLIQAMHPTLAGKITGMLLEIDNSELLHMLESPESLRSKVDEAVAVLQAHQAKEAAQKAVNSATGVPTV
Sequence of Dual specificity protein phosphatase 3 (P51452 whole entry): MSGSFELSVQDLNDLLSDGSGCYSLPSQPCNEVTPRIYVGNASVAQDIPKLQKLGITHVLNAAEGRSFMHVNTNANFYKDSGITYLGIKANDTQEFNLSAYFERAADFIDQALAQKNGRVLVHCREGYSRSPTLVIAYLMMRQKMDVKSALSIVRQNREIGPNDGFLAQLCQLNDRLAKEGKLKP
Sequence of Lysine-specific demethylase 4C (Q9H3R0 whole entry): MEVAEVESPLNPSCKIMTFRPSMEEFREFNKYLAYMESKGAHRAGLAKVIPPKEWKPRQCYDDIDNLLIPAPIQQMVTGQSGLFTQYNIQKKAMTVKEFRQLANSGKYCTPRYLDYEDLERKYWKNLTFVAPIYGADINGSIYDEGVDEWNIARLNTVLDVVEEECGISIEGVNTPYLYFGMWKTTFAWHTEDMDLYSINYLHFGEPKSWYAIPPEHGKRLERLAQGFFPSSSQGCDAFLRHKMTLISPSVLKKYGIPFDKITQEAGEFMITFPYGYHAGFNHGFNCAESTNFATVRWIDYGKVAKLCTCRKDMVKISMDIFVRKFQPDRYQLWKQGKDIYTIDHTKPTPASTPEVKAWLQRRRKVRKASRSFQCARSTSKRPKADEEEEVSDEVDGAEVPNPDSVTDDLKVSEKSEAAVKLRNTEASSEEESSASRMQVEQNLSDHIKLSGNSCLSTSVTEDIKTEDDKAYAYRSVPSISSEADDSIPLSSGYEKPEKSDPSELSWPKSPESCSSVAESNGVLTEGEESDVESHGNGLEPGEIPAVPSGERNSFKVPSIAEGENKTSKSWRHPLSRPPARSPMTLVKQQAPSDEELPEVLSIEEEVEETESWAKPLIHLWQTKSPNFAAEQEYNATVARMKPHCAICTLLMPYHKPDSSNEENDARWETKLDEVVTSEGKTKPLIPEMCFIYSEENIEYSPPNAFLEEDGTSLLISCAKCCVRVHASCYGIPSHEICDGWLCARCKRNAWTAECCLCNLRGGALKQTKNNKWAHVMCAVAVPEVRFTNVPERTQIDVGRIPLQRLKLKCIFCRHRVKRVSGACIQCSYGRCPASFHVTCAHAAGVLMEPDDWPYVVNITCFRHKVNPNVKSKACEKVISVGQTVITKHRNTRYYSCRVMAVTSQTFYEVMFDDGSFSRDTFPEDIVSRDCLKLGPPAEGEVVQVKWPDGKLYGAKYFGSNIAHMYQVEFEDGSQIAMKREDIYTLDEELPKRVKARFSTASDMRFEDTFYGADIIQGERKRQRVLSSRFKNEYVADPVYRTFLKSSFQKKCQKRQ
Sequence of Lysine-specific demethylase 4A (O75164 whole entry): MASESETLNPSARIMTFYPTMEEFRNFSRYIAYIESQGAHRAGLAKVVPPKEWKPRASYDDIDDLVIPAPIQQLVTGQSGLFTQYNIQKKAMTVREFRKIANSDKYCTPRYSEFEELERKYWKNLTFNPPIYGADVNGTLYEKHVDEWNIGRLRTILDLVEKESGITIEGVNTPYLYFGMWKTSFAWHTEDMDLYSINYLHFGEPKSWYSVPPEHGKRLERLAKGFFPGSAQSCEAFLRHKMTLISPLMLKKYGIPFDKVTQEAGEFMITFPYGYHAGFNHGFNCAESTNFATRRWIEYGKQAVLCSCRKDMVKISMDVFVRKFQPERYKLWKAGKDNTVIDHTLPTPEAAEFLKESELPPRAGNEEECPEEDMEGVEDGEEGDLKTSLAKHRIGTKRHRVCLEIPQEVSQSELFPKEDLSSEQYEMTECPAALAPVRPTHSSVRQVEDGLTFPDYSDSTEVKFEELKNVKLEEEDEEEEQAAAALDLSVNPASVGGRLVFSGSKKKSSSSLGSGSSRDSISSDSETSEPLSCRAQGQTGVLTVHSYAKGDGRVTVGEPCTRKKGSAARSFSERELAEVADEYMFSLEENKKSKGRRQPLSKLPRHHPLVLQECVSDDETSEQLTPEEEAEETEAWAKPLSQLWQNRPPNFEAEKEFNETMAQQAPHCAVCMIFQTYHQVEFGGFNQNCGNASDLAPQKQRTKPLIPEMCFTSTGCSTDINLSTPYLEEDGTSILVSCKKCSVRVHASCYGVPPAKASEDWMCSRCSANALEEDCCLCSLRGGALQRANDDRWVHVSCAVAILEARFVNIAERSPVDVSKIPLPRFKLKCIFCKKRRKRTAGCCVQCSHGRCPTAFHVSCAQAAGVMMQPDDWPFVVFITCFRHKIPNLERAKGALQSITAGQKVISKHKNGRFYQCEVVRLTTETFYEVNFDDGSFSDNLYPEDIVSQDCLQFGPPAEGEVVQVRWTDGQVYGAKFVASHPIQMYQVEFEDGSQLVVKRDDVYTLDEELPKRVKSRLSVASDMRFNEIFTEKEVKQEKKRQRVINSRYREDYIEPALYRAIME

Cc1ccc2[nH]c(=O)c(C=C3C(=O)NC(=O)NC3=O)cc2c1
AC50 [1]: 26.9 µM (active)
AC50 [2]: 46.5 µM (active)
IC50 [3]: > 50 µM (not active)

Cc1ccc(C)c(NC(S)=NC(NC(=O)OCc2ccccc2)C(Cl)(Cl)Cl)c1 (centres undefined)
IC50 [4]: 1.53 µM (active)
IC50 [5]: > 32 µM (inactive)
EC50 [6]: > 32 µM (inactive)
IC50 [7]: > 32 µM (inactive)
IC50 [8]: 6.2 µM (active)
EC50 [9]: > 32 µM (inactive)
EC50 [10]: > 32 µM (inactive)

CC(C)NS(=O)(=O)c1ccc(NC(=S)NC(=O)c2ccc(-c3ccccc3)cc2)cc1
IC50 [11]: > 100 µM (inactive)
IC50 [12]: > 32 µM (inactive)
IC50 [13]: > 32 µM (inactive)
EC50 [14]: 0.544 µM (active)
IC50 [15]: > 100 µM (inactive)
EC50 [16]: > 32 µM (inactive)
IC50 [17]: > 66 µM (inactive)
IC50 [18]: > 66 µM (inactive)
EC50 [19]: 0.354 µM (active)

— ChEMBL document CHEMBL1201862, “PubChem BioAssay data set” (2004)
